# Assay results from US5585491A, “Antibacterial agents” (Otsuka Pharmaceutical Co., Ltd., priority 1995, dated 1996).
# Read-outs that look alike come from different tables or passages of the source.
# Experiments:
# Test in all cases: In vitro antibacterial activity, microtitration dilution method (MIC)
# Format in all cases: cell-based
# [1] = tested on: Staphylococcus aureus UC-76
# Description: (§1) Agents & Chemoth., 6, 124 (1974), which is incorporated herein by reference.
# [2] = tested on: Pseudomonas aeruginosa UI-18; details: UI18; Pseudomonas aeruginosa UI-18, microtitration dilution; read-out: Minimal Inhibitory Concentration MIC
# Description: as §1
# [3] = tested on: Proteus rettgeri M 1771; details: Providencia rettgeri, M1771; Proteus rettgeri M 1771, microtitration dilution; read-out: Minimal Inhibitory Concentration MIC
# Description: as §1
# [4] = tested on: Streptococcus pneumoniae SV-1
# Description: as §1
# [5] = tested on: Streptococcus faecalis MGH-2; details: Enterococcus faecalis
# Description: as §1
# [6] = tested on: Klebsiella pneumoniae MGH-2
# Description: as §1
# [7] = tested on: Enterobacter cloacae MA 2646
# Description: (§2) The compounds of the invention display antibacterial activity when tested by the microtitration dilution method as described in Heifetz, et al, Antimicr. Agents & Chemoth., 6, 124 (1974), which is incorporated herein by reference. By use of this method, the followed minimum inhibitory concentration values (MICs in μg/mL) were obtained for representative compounds of the invention.
# [8] = tested on: Escherichia coli Vogel; details: read-out: Minimal Inhibitory Concentration MIC
# Description: as §2
# [9] = tested on: Staphylococcus aureus H 228; details: H228; Staphylococcus aureus H 228, microtitration dilution; read-out: Minimal Inhibitory Concentration MIC
# Description: as §2
# [10] = tested on: Streptococcus pyogenes C-203; details: C203; Streptococcus pyogenes C-203, microtitration dilution; read-out: Minimal Inhibitory Concentration MIC
# Description: as §2
# [11] = UC76, Staphylococcus aureus UC-76, microtitration dilution, read-out: Minimal Inhibitory Concentration MIC
# [12] = SV1, Streptococcus pneumoniae SV-1, microtitration dilution, read-out: Minimal Inhibitory Concentration MIC
# [13] = MGH2, Streptococcus faecalis MGH-2, microtitration dilution, read-out: Minimal Inhibitory Concentration MIC
# [14] = MGH2, Klebsiella pneumoniae MGH-2, microtitration dilution, read-out: Minimal Inhibitory Concentration MIC
# [15] = MA2646, Enterobacter cloacae MA 2646, microtitration dilution, read-out: Minimal Inhibitory Concentration MIC
# [16] = Escherichia coli Vogel, microtitration dilution
# [17] = Enterobacter cloacae, MA2646, read-out: Minimal Inhibitory Concentration MIC
# [18] = Staphylococcus aureus, UC76, read-out: Minimal Inhibitory Concentration MIC
# [19] = MGH2, read-out: Minimal Inhibitory Concentration MIC
# [20] = Klebsiella pneumoniae, MGH2, read-out: Minimal Inhibitory Concentration MIC
"MIC [7, 15] [mg/L]",Structure (SMILES),"MIC [1, 11] [mg/L]",MIC [2] [mg/L],MIC [3] [mg/L],"MIC [4, 12] [mg/L]","MIC [5, 13] [mg/L]","MIC [6, 14] [mg/L]","MIC [8, 16] [mg/L]",MIC [9] [mg/L],MIC [10] [mg/L],"MIC [7, 17] [mg/L]","MIC [1, 18] [mg/L]",MIC ([8]; Escherichia coli) [mg/L],"MIC ([4]; Streptococcus pneumoniae, SV1, read-out: Minimal Inhibitory Concentration MIC) [mg/L]","MIC [5, 19] [mg/L]","MIC [6, 20] [mg/L]"
0.025,"Cc1c(F)c(N2CCNC(C)C2)cc2c1c(=O)c(C(=O)O)cn2C1CC1 (centres unmarked) [Ex. 7, 1-Cyclopropyl-6-fluoro-1,4-dihydro-5-methyl-7-(3-methyl-1-piperazinyl)-4-oxo-3-quinolinecarboxylic acid]",0.025,0.8,0.2,0.025,0.1,0.05,0.013,0.1,0.05,,,,,,
,"Cc1c(F)c(N2CCC(N)C2)cc2c1c(=O)c(C(=O)O)cn2C1CC1 (centres unmarked) [Ex. 8, 7-(3-Amino-1-pyrrolidinyl)-1-cyclopropyl-6-fluoro-1,4-dihydro-5-methyl-4-oxo-3-quinolinecarboxylic acid]",0.025,0.4,0.1,0.013,0.4,0.1,0.025,0.1,0.025,0.05,,,,,
0.1,"Cc1c(F)c(N2CCC(C)(CN)C2)cc2c1c(=O)c(C(=O)O)cn2C1CC1 (centres unmarked) [Ex. 9, 7-[3-(Aminomethyl)-3-methyl-1-pyrrolidinyl]-1-cyclopropyl-6-fluoro-1,4-dihydro-5-methyl-4-oxo-3-quinolinecarboxylic acid]",0.006,1.6,0.8,0.006,0.1,0.4,0.1,0.025,0.013,,,,,,
,"Cc1c(F)c(N2CCNCC2)c(Cl)c2c1c(=O)c(C(=O)O)cn2C1CC1 [Ex. 10, 8-Chloro-1-cyclopropyl-6-fluoro-1,4-dihydro-5-methyl-4-oxo-7-(1-piperazinyl)-3-quinolinecarboxylic acid]",0.025,0.2,0.2,0.1,0.2,0.1,0.025,0.05,0.2,0.05,,,,,
,"Cc1c(F)c(N2CCC(N)C2)c(Cl)c2c1c(=O)c(C(=O)O)cn2C1CC1 (centres unmarked) [Ex. 11, 7-(3-Amino-1-pyrrolidinyl)-8-chloro-1-cyclopropyl-6-fluoro-1,4-dihydro-5-methyl-4-oxo-3-quinolinecarboxylic acid]",0.013,0.2,0.05,0.025,0.05,0.05,0.013,0.025,0.05,0.05,,,,,
,"CCn1cc(C(=O)O)c(=O)c2c(C)c(F)c(N3CCNCC3)c(F)c21 [Ex. 12, 1-Ethyl-6,8-difluoro-1,4-dihydro-5-methyl-4-oxo-7-(1-piperazinyl)-3-quinolinecarboxylic acid]",,1.6,0.4,6.3,3.1,0.2,,0.8,12.5,0.05,0.2,0.05,,,
,"CCn1cc(C(=O)O)c(=O)c2c(C)c(F)c(N3CCC(N)C3)c(F)c21 (centres unmarked) [Ex. 13, 7-(3-Amino-1-pyrrolidinyl)-1-ethyl-6,8-difluoro-1,4-dihydro-5-methyl-4-oxo-3-quinolinecarboxylic acid]",0.1,1.6,0.4,,,0.2,0.05,0.4,3.1,0.05,,,1.6,0.8,
0.1,"Cc1c(F)c(N2CCNCC2)c(F)c2c1c(=O)c(C(=O)O)cn2-c1ccc(F)cc1F [Ex. 14, 6,8-Difluoro-1-(2,4-difluorophenyl)-1,4-dihydro-5-methyl-4-oxo-7-(1-piperazinyl)-3-quinolinecarboxylic acid]",0.05,0.8,0.4,0.4,0.4,0.4,0.05,0.2,0.4,,,,,,
0.05,"Cc1c(F)c(N2CCNCC2)cc2c1c(=O)c(C(=O)O)cn2-c1ccc(F)cc1F [Ex. 17, 6-Fluoro-1-(2,4-difluorophenyl)-1,4-dihydro-5-methyl-4-oxo-7-(1-piperazinyl)-3-quinolinecarboxylic acid]",0.025,0.8,0.2,0.05,0.2,0.1,0.05,0.1,0.1,,,,,,
0.2,"Cc1c(F)c(N2CCNC(C)C2)cc2c1c(=O)c(C(=O)O)cn2-c1ccc(F)cc1F (centres unmarked) [Ex. 17a, 6-Fluoro-1-(2,4-difluorophenyl)-1,4-dihydro-5-methyl-7-(3-methyl-1-piperazinyl)-4-oxo-3-quinolinecarboxylic acid]",0.025,1.6,0.8,0.05,0.4,0.4,0.1,0.1,0.1,,,,,,
,"Cc1c(F)c(N2CCC(N)C2)cc2c1c(=O)c(C(=O)O)cn2-c1ccc(F)cc1F (centres unmarked) [Ex. 17c, 7-(3-Amino-1-pyrrolidinyl)-6-fluoro-1-(2,4-difluorophenyl)-1,4-dihydro-5-methyl-4-oxo-3-quinolinecarboxylic acid]",0.013,0.8,0.2,0.025,0.1,,0.05,0.05,0.05,0.05,,,,,0.1

Structure (SMILES),"MIC [7, 15] [mg/L]","MIC [1, 11] [mg/L]",MIC [2] [mg/L],MIC [3] [mg/L],"MIC [4, 12] [mg/L]","MIC [5, 13] [mg/L]","MIC [6, 14] [mg/L]","MIC [8, 16] [mg/L]",MIC [9] [mg/L],MIC [10] [mg/L],"MIC [7, 17] [mg/L]","MIC [1, 18] [mg/L]",MIC ([8]; Escherichia coli) [mg/L],"MIC ([4]; Streptococcus pneumoniae, SV1, read-out: Minimal Inhibitory Concentration MIC) [mg/L]","MIC [5, 19] [mg/L]","MIC [6, 20] [mg/L]"
"Cc1c(F)c(N2CC(C)NC(C)C2)c(F)c2c1c(=O)c(C(=O)O)cn2-c1ccc(F)cc1F (centres unmarked) [Ex. 14a, 6,8-Difluoro-1-(2,4-difluorophenyl)-1,4-dihydro-5-methyl-7-(3,5-dimethyl-1-piperazinyl)-4-oxo-3-quinolinecarboxylic acid]",0.4,,3.1,3.1,0.8,1.6,1.6,0.4,0.4,1.6,,0.2,,,,
"Cc1c(F)c(N2CCC(N)C2)c(F)c2c1c(=O)c(C(=O)O)cn2-c1ccc(F)cc1F (centres unmarked) [Ex. 15, 7(3-Amino-1-pyrrolidinyl)-6,8-difluoro-1-(2,4-difluorophenyl)-1,4-dihydro-5-methyl-4-oxo-3-quinolinecarboxylic acid]",0.025,0.025,0.8,0.2,0.1,0.2,,0.025,0.05,0.1,,,,,,0.1
"Cc1c(F)c(N2CC(C)NC(C)C2)cc2c1c(=O)c(C(=O)O)cn2-c1ccc(F)cc1F (centres unmarked) [Ex. 17b, 6-Fluoro-1-(2,4-difluorophenyl)-1,4-dihydro-5-methyl-7-(3,5-dimethyl-1-piperazinyl)-4-oxo-3-quinolinecarboxylic acid]",0.4,0.05,1.6,1.6,0.05,,0.8,0.2,0.1,0.1,,,,,0.8,
